Converted amounts (≈) assume the structure as drawn. “And” between values parts separate entries of the source, which are not always exact repeats. Equal values may be shown once. Where a name gives a salt, the structure may show the parent alone. Read-outs that look alike come from different tables or passages of the source.
Tests used:
RABV CVS strain [1] = test: microbe, parasite or virus in culture; format: cell-based, rabies virus; settings: for EC50: read-out: CVS EC50
in vitro [2] = settings: human
[3] = test system: pVSV (pseudovirus expressing a vesicular stomatitis virus envelope glycoprotein); test: microbe, parasite or virus in culture; format: cell-based; settings: for EC50: read-out: pVSV EC50
[4] = test system: pRABV (pseudovirus enveloped by the RABV glycoprotein G); test: microbe, parasite or virus in culture; format: cell-based, rabies virus; settings: for EC50: read-out: pRABV EC50
Rabies virus CVS strain = settings: mouse, in vivo
RABV [5] = test: microbe, parasite or virus in culture; format: cell-based; settings: Lyssavirus rabies, in Felis catus
in vitro [6] = settings: cat
in vitro [7] = settings: hamster
RABV CVS strain [8] = format: cell-based, rabies virus
RABV [9] = biological target: RABV; set-up: species or system rabies virus; settings: read-out: binding affinity (KD)
RABV [10] = settings: cited from earlier work
RABV vaccine strain = settings: cited from earlier work
rabies infection = settings: mouse, in vivo; cited from earlier work

| SMILES | SICVS (RABV CVS strain [1]) | EC50 (RABV CVS strain [1]; Lyssavirus rabies, 24 h) | CC50 (in vitro [2]) | EC50pVSV/EC50pRABV [3] | EC50 ([3]; Pseudovirus, HEK-293T) | SI pRABV [4] | EC50 ([4]; Pseudovirus, HEK-293T, 48 h) | EC50 (RABV CVS strain [1]) | further results |
| --- | --- | --- | --- | --- | --- | --- | --- | --- | --- |
| CCOC(=O)C1=C(COCCN)NC(C)=C(C(=O)OC)C1c1ccccc1Cl (stereo not drawn) [Amlodipine besylate] | 1.0 | 37.4 µM | 36.3 µM | 19.4 | 26.4 µM | 26.8 | 1.4 µM | – | – |
| CCOC(=O)C1=C(COCCN)NC(C)=C(C(=O)OC)C1c1ccccc1Cl (stereo not drawn) [Amlodipine maleate] | 0.9 | – | – | 13.3 | – | 17.9 | – | 37.8 µM | CC50 (293T cells): 34.9 µM; EC50 [3]: 25.8 µM; EC50 [4]: 1.9 µM |
| CCN(CC)Cc1cc(Nc2ccnc3cc(Cl)ccc23)ccc1O [Amodiaquine hydrochloride] | 5.7 | 14.8 µM | 84.9 µM | 5.8 | 24.3 µM | 20.3 | 4.2 µM | – | – |
| CC(C)N=c1cc2n(-c3ccc(Cl)cc3)c3ccccc3nc-2cc1Nc1ccc(Cl)cc1 [CFZA, Clofazimine aspirin salt] | – | – | – | – | – | – | – | 1.2 µM | survival rate at 14 dpi (Rabies virus CVS strain): 25% |
| CC(C)N=c1cc2n(-c3ccc(Cl)cc3)c3ccccc3nc-2cc1Nc1ccc(Cl)cc1 [CFZG, Clofazimine gallic acid salt] | – | – | – | – | – | – | – | 2.07 µM | percentage of sick mice at five dpi (Rabies virus CVS strain): 40%; survival rate compared with the control (Rabies virus CVS strain): no improvement on the survival rate |
| CC(C)N=c1cc2n(-c3ccc(Cl)cc3)c3ccccc3nc-2cc1Nc1ccc(Cl)cc1 [CFZH, Clofazimine hydrochloride salt] | – | – | – | – | – | – | – | 1.2 µM | survival rate compared with the control (Rabies virus CVS strain): no improvement on the survival rate |
| CC(C)N=c1cc2n(-c3ccc(Cl)cc3)c3ccccc3nc-2cc1Nc1ccc(Cl)cc1 [CFZM, Clofazimine methanesulfonate] | – | – | – | – | – | – | – | 2.5 µM | survival rate compared with the control (Rabies virus CVS strain): no improvement on the survival rate |
| CC(C)N=c1cc2n(-c3ccc(Cl)cc3)c3ccccc3nc-2cc1Nc1ccc(Cl)cc1 [CFZS, Clofazimine salicylates] | – | – | – | – | – | – | – | 1.2 µM | EC50 (RABV [5]): 4.71 µM; percentage of sick mice at five dpi (Rabies virus CVS strain): 40%; survival at 14 dpi (Rabies virus CVS strain): 50% and 40%; survival rate at 14 dpi (Rabies virus CVS strain): 30%; redness in the skin (Rabies virus CVS strain; po): No redness in the skin; CC50 (in vitro [6]): 670 µM |
| N.N.[Cl][Pt][Cl] [Cisplatin] | >3.0 | – | – | >5.1 | – | >5.1 | – | 67 µM | CC50 (293T cells): > 200 µM; EC50 [3]: > 200 µM; EC50 [4]: 39.1 µM |
| CC(C)/N=c1\cc2n(-c3ccc(Cl)cc3)c3ccccc3nc-2cc1Nc1ccc(Cl)cc1 [Clofazimine] | – | 2.28 µM | > 200 µM | – | 10.5 µM | – | 1.7 µM | 2.28 µM | concentrations inhibiting RABV (RABV CVS strain [1]): 2 to 33 µM; CC50 (in vitro [7]): > 2200 µM; EC50 (RABV [5]): 4.24 µM; antiviral efficacy (survival) (Rabies virus CVS strain): did not show any antiviral efficacy; percentage of sick mice at five dpi (Rabies virus CVS strain): 50%; survival at 14 dpi (Rabies virus CVS strain): 30%; survival rate at 14 dpi (Rabies virus CVS strain): 10%; solubility (physchem): 0.29 µg/mL (≈ 0.613 µM); inhibitory effect on RABV infection (RABV CVS strain [8]): strong inhibitory effect; suppression of fluorescence activity (RABV infection) (RABV CVS strain [8]): no suppression of fluorescence activity; Kd (RABV [9]): 4.32 µM; CC50 (in vitro [6]): 144 µM |
| CC(CN1c2ccccc2S(=O)(=O)c2ccccc21)N(C)C.Cl (stereo not drawn) [Dioxopromethazine hydrochloride] | >3.0 | – | – | >5.5 | – | >5.5 | – | 67 µM | CC50 (293T cells): > 200 µM; EC50 [3]: > 200 µM; EC50 [4]: 36.7 µM |
| CCc1c2c(nc3ccc(OC(=O)N4CCC(N5CCCCC5)CC4)cc13)-c1cc3c(c(=O)n1C2)COC(=O)[C@]3(O)CC.Cl [Irinotecan hydrochloride] | 1.2 | – | – | >5.9 | – | >5.9 | – | 67 µM | CC50 (293T cells): > 200 µM; EC50 [3]: > 200 µM; EC50 [4]: 33.6 µM |
| CNC1(c2ccccc2Cl)CCCCC1=O (stereo not drawn) [Ketamine] | – | – | – | – | – | – | – | – | concentrations inhibiting RABV replication (RABV [10]): 1 to 2 mM |
| CN1CCC(=C2c3ccccc3CC(=O)c3sccc32)CC1 [Ketotifen fumarate] | >3.0 | 67 µM | > 200 µM | 8.1 | 87.8 µM | >18 | 10.8 µM | – | – |
| CNCCCC12CCC(c3ccccc31)c1ccccc12 [Maprotiline hydrochloride] | >4.5 | – | 52 µM | – | – | – | – | – | – |
| CN1CCC(=C2c3ccccc3CCc3sccc32)CC1 [Pizotifen] | 1.5 | 67 µM | 100 µM | 8.2 | 25.7 µM | 32.3 | 3.1 µM | – | – |
| NC(=O)c1nc(F)cnc1O [T-705, 6-fluoro-3-hydroxy-2-pyrazinecarboxamide] | – | – | – | – | – | – | – | – | EC50 (RABV vaccine strain): 32.4 µM; viral replication in the CNS (rabies infection): suppress viral replication in the CNS; survival at 14 dpi (Rabies virus CVS strain; po, 300 mg/kg/day): 40% |
| CCCCNc1ccc(C(=O)OCCN(C)C)cc1 [Tetracaine hydrochloride] | >3.0 | 67 µM | > 200 µM | >3 | > 200 µM | >3 | 65.8 µM | – | – |
